Test results taken from US6034058A, “Semi-synthetic alanyl dilemnin analogs” (priority 1998, dated 2000).
Numbered stars: 1 amine (or outer) side, 2 acyl side, 3 side chain; on linkers, the order of the positions; unused ones are H or OH. Bridge positions count the residues as written; N and C are the ends. Square brackets hold non-standard residues; d marks the D form. Peptide text beside a SMILES is read from it. X1 = CC[C@H](C)[C@@H](N[*:1])[C@@H](O)CC(=O)O[C@H](C(=O)[C@H](C)C(=O)[*:2])C(C)C; NMeY = CN[C@@H](Cc1ccc(O)cc1)C(=O)O; dNMeL = CN[C@H](CC(C)C)C(=O)O

Columns and labels:
L1210 = assay type: cell-based; conditions: for L1210, IC90: L1210 cells, cytotoxicity
DNA and RNA viruses = conditions: against DNA and RNA viruses; cited from earlier work
[1] = biological target: elongation factor-1α (EF-1α) (Homo sapiens, UniProt P68104); conditions: GEP-dependent manner; cited from earlier work
[2] = in vitro; cited from earlier work
Nb2 node lymphoma cells = conditions: cited from earlier work

Sequence of elongation factor-1α (EF-1α) (P68104 whole entry): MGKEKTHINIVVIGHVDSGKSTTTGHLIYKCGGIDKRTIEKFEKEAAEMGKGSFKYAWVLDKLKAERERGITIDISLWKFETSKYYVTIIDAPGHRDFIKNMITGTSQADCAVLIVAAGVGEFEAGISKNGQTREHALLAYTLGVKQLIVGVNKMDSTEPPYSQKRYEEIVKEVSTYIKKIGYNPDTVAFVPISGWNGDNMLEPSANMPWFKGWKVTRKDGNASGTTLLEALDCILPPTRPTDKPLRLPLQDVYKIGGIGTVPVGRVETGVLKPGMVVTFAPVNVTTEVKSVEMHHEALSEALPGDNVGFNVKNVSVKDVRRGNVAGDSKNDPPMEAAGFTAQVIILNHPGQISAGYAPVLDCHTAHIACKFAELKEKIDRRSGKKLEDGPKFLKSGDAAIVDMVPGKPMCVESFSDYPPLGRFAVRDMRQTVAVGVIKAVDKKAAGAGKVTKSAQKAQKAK

CC[C@H](C)[C@H]1NC(=O)[C@@H](NC(=O)[C@@H](CC(C)C)NC)[C@@H](C)OC(=O)[C@H](Cc2ccc(OC)cc2)N(C)C(=O)[C@@H]2CCCN2C(=O)[C@H](CC(C)C)NC(=O)[C@@H](C)C(=O)[C@H](C(C)C)OC(=O)C[C@@H]1O [Didemnin A] (H-[dNMeL]T[X1]LP[NMeY](Me); ester 2-C)
L1210, IC90 (L1210): 75 ng/mL
antiviral activity (DNA and RNA viruses): exhibit antiviral activity
binding to EF-1α [1]: binds elongation factor-1α (EF-1α)

CC[C@H](C)[C@H]1NC(=O)[C@@H](NC(=O)[C@@H](CC(C)C)N(C)C(=O)[C@@H]2CCCN2C(=O)C(C)O)[C@@H](C)OC(=O)[C@H](Cc2ccc(OC)cc2)N(C)C(=O)[C@@H]2CCCN2C(=O)[C@H](CC(C)C)NC(=O)[C@@H](C)C(=O)[C@H](C(C)C)OC(=O)C[C@@H]1O (stereo partly shown) [Didemnin B]
L1210, IC90 (L1210): 7 ng/mL
cytotoxicity relative to didemnin A [2]: approximately twenty times more cytotoxic than didemnin A
antiviral activity (DNA and RNA viruses): exhibit antiviral activity
binding to a site on Nb2 node lymphoma cells (Nb2 node lymphoma cells): binds to a site on Nb2 node lymphoma cells

L-Alaninyl-didemnin A [Alaninyl DA]
L1210, IC90 (L1210): 8 ng/mL

L-[Alaninyl^9 ] didemnin B [[Ala^9]DB]
relative bioactivity among the didemnins synthesized (L1210; preliminary assay results): the most active of the didemnins synthesized thus far

L-glutaminyl-L-[alaninyl^9 ]didemnin B [Gln-[Ala^9]DB]
L1210, IC90 (L1210): 200 ng/mL

L-glutaminyl-L-alaninyl-didemnin A [Glutaminyl-AlaDA]
L1210, IC90 (L1210): 25 ng/mL

L-pyroglutamyl-L-[alaninyl^9 ] didemnin B [pGlu-[Ala^9]DB]
L1210, IC90 (L1210): 500 ng/mL

N-Benzyloxycarbonly-L-[Alaninyl^9 ]didemnin B [Cbz-[Ala^9]DB]
L1210, IC90 (L1210): 2 ng/mL

N-Benzyloxycarbonyl-L-alaninyl-didemnin A [Cbz-Alaninyl DA]
L1210, IC90 (L1210): 3 ng/mL

N-Benzyloxycarbonyl-L-glutaminyl-didemnin A [Cbz-Glutaminyl DA]
L1210, IC90 (L1210): 8 ng/mL

Pro-Didemnin A [Prolyl DA]
L1210, IC90 (L1210): 12 ng/mL
